# Columns and labels:
# NIH3T3 = assay: Cytoskeleton analysis, actin staining (FITC-phalloidin); type: cell-based, mouse; details: for Cell architecture modification actin staining (R: ruffles; FC: focal complexes) NIH3T3: 24 h treatment
# Procedure: Since major rearrangements of cytoskeleton are observed in tumor cells and since the small GTPases are known to regulate these events, analysis of actin cytoskeleton was performed. Subconfluent cells seeded onto coverslips were treated with different concentration of compound (1, 10, 17.5, 25 and 50 μM) or vehicle for 24 h, before being fixed in 4% formaldehyde for 15 min., permeabilized in 0.2% Triton X100 for 5 minutes and incubated in PowerBlock (Biogenex) for 10 min. Actin filaments were stained with 0.5 μg/ml fluorescein isothiocyanate (FITC)-labelled phalloidin for 1 hour. Analysis was performed using an inverted fluorescent microscope.
# Ras = assay: Ras-dependant signaling pathway analysis (reporter system); type: cell-based; design: key: −: no effect of the compound was observed; +: an effect of the compound was observed
# Procedure: (§1) The impact of the compounds on Ras and Rac signaling pathways was analysed with two reporter systems described by Imler (Nature 1988) and Lin (Science, 1995) respectively on one hand, and by a colony formation assay in the presence of constitutively activated Ras (RasV12) and Rac (RacV12) on the other hand. For this latter experiment, fifty percent confluent NIH3T3 cells in a 10 cm diameter petri dish were transfected with 0.5 μg pSV2-RasV12 or 0.5 μg pEXV RacV12 plasmids plus 100 ng of pSV2-neomycin plasmid using Lipofectamine-Plus reagent (Invitrogen) according to the manufacturer's instructions. Forty-eight hours later, cells were trypsinised, splitted to ⅓, and incubated in the presence of complete medium supplemented with 400 μg/ml geneticin (Invitrogen) and different doses of compound (1, 10, 17.5, 25 and 50 μM) until emerging resistant clones appear (2-3 weeks). The medium was renewed every 3 days. Colonies with a minimum of 50 cells were counted after staining with Fuschin 2%.
# H460 lung carcinoma = assay: Cytotoxicity assay (MTT), 6 days; type: cell-based; details: Homo sapiens, NCI-H460, 144 h, 6 days of treatment, read-out: Toxicity 6d (IC 50, μM) H460
# Summary of the method: (§2)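 5.10^3 or 2.10^4 cells/well plated, dosed next day (0, 1, 10, 17.5, 25, 50 μM; DMSO 1%). 6 d exposure → MTT 0.5 mg/ml, 3 h 37° C → DMSO solubilization → A550. IC50 calc., n=3.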
# [1] = system: MDA-MB-231 breast carcinoma; assay: Cytotoxicity assay (MTT), 6 days; type: cell-based; details: Homo sapiens, MDA-MB-231, 144 h, 6 days of treatment, read-out: Toxicity 6d (IC 50, μM) MDA231
# Summary of the method: as §2
# MCF-7 breast carcinoma = assay: Cytotoxicity assay (MTT), 6 days; type: cell-based; details: Homo sapiens, MCF7, 144 h, 6 days of treatment, read-out: Toxicity 6d (IC 50, μM) MCF7
# Summary of the method: as §2
# NIH3T3 cells = assay: Colony formation assay with constitutively activated Ras (RasV12) and Rac (RacV12); type: cell-based, mouse; design: key to Colony formation: −: no effect of the compound was observed; +: an effect of the compound was observed
# Procedure: as §1
# [2] = system: HCT116 colon adenocarcinoma; assay: Cytotoxicity assay (MTT), 6 days; type: cell-based, human; details: Homo sapiens, HCT-116, 144 h, 6 days of treatment, read-out: Toxicity 6d (IC 50, μM) HCT116
# Summary of the method: as §2
# Rac = assay: Rac-dependant signaling pathway analysis (reporter system); type: cell-based; design: key: −: no effect of the compound was observed; +: an effect of the compound was observed
# Procedure: as §1
# cell architecture = assay: Cell architecture modification, phase contrast; type: cell-based; design: key: −: no effect of the compound was observed; +: an effect of the compound was observed
# MRC-5 = assay: Cytotoxicity assay (MTT), 6 days; type: cell-based; details: Homo sapiens, MRC5, 144 h, 6 days of treatment, read-out: Toxicity 6d (IC 50, μM) MRC-5
# Summary of the method: as §2
# MDA-MB-231 cells [3] = assay: Migration assay (Boyden chamber, non-coated filters); type: cell-based, human; details: MDA-MB-231, Boyden chamber
# Procedure: One day after seeding, 10^6 MDA-MB-231 cells were treated overnight with different concentrations of compounds (1, 10, 17.5, 25 and 50 μM). Cells were collected with Versene (Invitrogen), counted with trypan blue exclusion, rinsed twice in serum-free medium containing 0.1% BSA and resuspended in serum-free medium containing 0.1% BSA plus the appropriate concentration of compound. 10^5 treated cells were placed in the upper chamber. Medium containing 10% of FBS plus the appropriate concentration of compound was placed in the lower chamber as a chemoattractant. The Boyden chamber was incubated 6 hours at 37° C. before the cells were fixed and stained with Diff-Quick (Dade-Berhing). Cells on the upper part of the filters were removed using a cotton swab. Cells on the underside of the filters were visualised and counted under light microscope.
# The migration assay was performed the same way, using non-coated filters.
# HCT116 cells = assay: Anchorage-independent cell growth assay in soft agar, Example 32; type: cell-based, human
# Procedure: FIG. 8: Effect of the treatment of HCT116 cells with the compounds on the size of the clones grown in soft agar. 5 10^3 cells were seeded in 24-well plates in 0.3% agar-containing medium supplemented with the designated amount of compounds. After 7 days of incubation at 37° C., pictures were taken of each well and were analyzed using the ImageJ image analysis software. In particular, clone size and number were calculated. The data were analyzed using GraphPad Prism, and IC50 was calculated.
# In order to evaluate the effect of one compound on the capacity of tumour cells to grow without anchorage, HCT116 cells were seeded in soft agar. In contrast to microplate assays which average the drug's effects over an entire cell population, clonogenic assays offer the possibility of distinguishing cytotoxic agents (i.e., decreased colony number) from cytostatic agents (i.e., decreased colony size without decreased colony number; Murphy M. J. et al., 1996).
# Briefly, 5 10^3 HCT116 cells were resuspended in 300 pi of complete medium containing 0.3% soft-agar (Difco) and different concentrations of compound (8 concentrations ranging from 0 to 30 μM). Cells were then poured on a solidified layer of medium containing 0.5% of soft agar plus the compound at the same concentration as in the upper layer. Cells were incubated for 7 days' at 37° C. before pictures of each well were taken using a phase contrast microscope (Nikon) and a digital camera (Nikon Coolpix 990). Pictures were subsequently analyzed using a free image analysis software from the NIH (ImageJ) allowing to determine clones size and number.
# Data was analyzed using the GraphPad Prism software, and IC50 (dose leading to a 50% decrease of clone size or number) was calculated from dose-response curves. The ratio IC50 clone size/IC50 clone number was then calculated. When this ratio is equal to 1 (IC50 size=IC50 number), the compound is referred to as “cytotoxic”. When the ratio is close to 0 (IC50 size<<IC50 number), the compound is referred to as “cytostatic” (FIG. 6).
# MDA-MB-231 cells [4] = assay: Migration assay (Fluoroblock inserts), Example 32; type: cell-based, human; details: 16 hours
# Procedure: FIG. 10: Migration of MDA-MB-231 cells in the presence of various concentrations of L651582, and EHT 0823. 5 10^4 MDA-MB-231 cells, resuspended in culture medium with or without Fetal Bovine Serum (FBS), were seeded in the upper Boyden blind well on top of 8 μm pore-sized filters. The ability of cells to migrate through the filter was assayed in the absence or presence of FBS in the lower Boyden well. After incubation at 37° C. for 16 hours, the medium was removed and replaced with calcein containing medium. After labelling, cells were washed and resuspended in HBSS and fluorescence was read in a fluoroskan. Fluorescence values were normalized against the fluorescence obtained for the 1% DMSO control. The data plotted are the means±SEM for 2 wells under the different conditions.
# An essential characteristic of malignant cells is their ability to migrate, invade host tissues and to produce metastases. In order to evaluate the capacity of one compound to affect the ability of tumoral cells to migrate, migration assays were performed using highly invasive tumoral cells MDA-MB-231. This assay was performed using Falcon HTS Fluoroblock inserts. Culture medium containing Fetal Bovine Serum (FBS; which is used as a chemoattractant) was added to the plate wells and 2 10^4 MDA-MB-231 cells resuspended in medium without FBS and with 0.1% BSA were added to each insert well. The compound of interest was added to the medium in both the upper and the lower chambers. Plate were incubated for 16 hours at 37° C. Following incubation, the medium was removed from the upper chamber and the entire insert plate was transferred to a second 24-well plate containing 4 μg/ml Calcein-AM in medium containing 0.1% BSA. The plates were incubated for one hour at 37° C., rinsed with Hanks Buffered Saline (HBSS). Fluorescence data were collected using Fluoroskan Ascent FL fluorescence plate reader at an excitation wavelength (Ex) of 485 nm and emission wavelength (Em) of 517 nm. Only those labelled cells that passed through the Matrigel layer and the membrane were detected. Data were analyzed using the GraphPad Prism software.
# HCT116 = assay: Cell viability assay (MTT), Example 32; type: cell-based, human; details: Homo sapiens, HCT-116, 144 h; day 6, 10% FBS
# Procedure: FIG. 7: Antiproliferative effect of compounds on HCT116 (top) and MDA-MB-231 (bottom) cell lines measured by MTT viability assay. 2.5 10^3 (HCT116) or 7.5 10^3 (MDA-MB-231) cells were seeded in 48-well plates in growth medium containing 10% FBS, with or without various concentrations of test compounds. Cell cultures were fed every 3 days with the appropriate media. Cell viability was determined on day 6. Data were analyzed and IC50s were calculated from the dose-response curves using GraphPad Prism.
# In order to determine one compound effect on cell viability, microculture tetrazolium assay (MTT) was performed as described by Carmichael et al., (1996) with modifications. Four human tumoral cell lines, namely HCT116 colon adenocarcinoma, H460 lung carcinoma, MCF-7 and MDA-MB-231 breast carcinoma cell lines, and 3 immortalized but non tumorigenic cell lines, namely NIH3T3 mouse fibroblasts and human breast-derived MCF10-A and human lung-derived MRC-5 were purchased at ATCC and cultured according to their recommendations. Briefly, 2.5 10^3 to 2 10^4 cells per well were seeded in 48-well plates 24 hours before drug addition. Cells were treated with 0 to 200 μM (11 concentrations) of compound solubilized in DMSO, adjusting the final concentration of DMSO to 1% in the well. Six days after treatment, the medium was replaced by PBS containing 0.5 mg/ml MTT (Sigma) and cells were incubated for 1-3 hours at 37° C. before solubilization of formazan crystals in 100% DMSO. Absorbance was measured using a spectrophotometer at a wavelength of 550 nm. Data was analyzed using the GraphPad Prism software (GraphPad Software, Inc., San Diego, USA), and IC50 (dose leading to 50% cell death) was calculated from the dose-response curves.
IC50 anchorage-independent growth of HCT116 (clone size) in soft agar (HCT116 cells; 7 days),IC50 (HCT116) [µM],Compound,"general morphology of NIH3T3 cells, as detected by β-actin staining (NIH3T3)",Cell architecture modification actin staining (R: ruffles; FC: focal complexes) NIH3T3 (NIH3T3),Small GTPases activities Ras (Ras),IC50 (H460 lung carcinoma) [µM],IC50 [1] [µM],IC50 (MCF-7 breast carcinoma) [µM],Colony formation (NIH3T3 cells),IC50 [2] [µM],Small GTPases activities Rac (Rac),Cell architecture modification phase contrast (cell architecture),IC50 (MRC-5) [µM],Migration (MDA-MB-231 cells [3]),inhibition of migration of MDA-MB-231 cells (MDA-MB-231 cells [4]; 10 μM compound),"inhibition at 50 µM (MDA-MB-231 cells [4]; Homo sapiens, MDA-MB-231, 50 μM compound) [%]",mode of action (cytotoxic vs cytostatic) (HCT116 cells; HCT116 soft agar),"ratio IC50 clone size/IC50 clone number (HCT116 cells; HCT116 soft agar, 7 days)",inhibition of migration of MDA-MB-231 cells (MDA-MB-231 cells [4]; 50 μM compound),"inhibition at 10 µM (MDA-MB-231 cells [4]; Homo sapiens, MDA-MB-231, 10 μM compound) [%]"
,,"O=c1cc(CO)occ1OCCCCCOc1ccc(Cl)c(Cl)c1 [EH5500, 5-[5-(3,4-Dichlorophenyloxy)pentyloxy]-2-(hydroxymethyl)-4H-pyran-4-one]",affected,cell destructuration,−,15,> 50,35,−,50,−,+,,,,,,,,
,,"O=c1cc(CO)occ1OCCCCCOc1cccc(Cl)c1 [EH10600, 5-[5-(3-Chlorophenyloxy)pentyloxy]-2-(hydroxymethyl)-4H-pyran-4-one]",affected,cell destructuration,−,25,10,40,−,> 50,−,+,,,,,,,,
,,"O=c1cc(CO)occ1OCCCCOc1ccc(Cl)c(Cl)c1 [EH17700, 5-[4-(3,4-Dichlorophenyloxy)butyloxy]-2-(hydroxymethyl)-4H-pyran-4-one]",,,−,15,15 to 20,20,−,30,−,−,> 50,no effect,,,,,,
micromolar range,1.5 to 4,"O=c1cc(COC2CCCCO2)occ1OCCCCCn1ccc2cc(Cl)ccc21 (centres unmarked) [EHT 0823, 5-[5-(5-Chloro-indol-1-yl)-pentyloxy]-2-(tetrahydro-pyran-2-yloxymethyl)-4H-pyran-4-one]",,,,,,,,,,,,,No significant inhibition,90,,,,
,,"NC(=O)c1nnn(Cc2cc(Cl)c(C(=O)c3ccc(Cl)cc3)c(Cl)c2)c1N [L651582, carboxyamidotriazole, reference compound]",,,,,,,,,,,,,,,cytostatic,0.3,Complete inhibition,~40

# Reference: US20050054629A1, “Compounds and methods of treating cell proliferative diseases” (priority 2002, published 2005)
